The conditions of data set [1]: background statement; cited from earlier work.
Data set [2] in a line: Concentration study: stability of pyruvic acid solutions in water at higher concentrations. Set-up: unit not given here. Format: physicochemical. The note with it: light, about 22° C. to about 26° C. On the procedure:
Each of these commercial solutions were subjected to light for 6-weeks at temperatures ranging from about 22° C. to about 26° C. At each of the concentrations listed below, it was discovered that the pyruvic acid solutions were stable.

A short description of data set [3]: Shelf storage stability of [1-^13C]pyruvic acid in water, by ^1H and ^13C NMR. Format: physicochemical. The note with it: 0.025M in water. On the procedure: Samples of isotopically labeled [1-^13C]pyruvic acid, having Formula VI and synthesized as discussed immediately below, were subjected to various conditions as depicted in Table 1, in order to establish the compound's shelf storage stability.
The resulting [1-^13C]pyruvic acid was tested as follows in Table 1:
^1H and ^13C NMR spectra of the distilled [1-^13C]pyruvic acid in water (0.025M) were acquired at the onset of the study and prior to exposing the samples to the various conditions specified in Table 1. ^1H and ^13C NMR spectra were again acquired for each of the samples after being exposed to the aforementioned conditions on a weekly basis for 12-weeks. The spectra acquired after exposure were compared visually and appeared to remain unchanged as compared with the spectra acquired prior to exposure, i.e. the spectra were as expected for [1-^13C]pyruvic acid in water. As such, it was concluded that each of the samples were shelf stable. Similarly, ^1H and ^13C NMR spectra acquired after 17-weeks of exposure remained unchanged as compared with the spectra acquired prior to exposure.

Data set [4] can be described thus: Titration of aqueous sample 4 with sodium hydroxide, composition by HPLC. Format: physicochemical. The settings on record: sample 4 titrated with sodium hydroxide to pH of about 6.2. An excerpt: The molarity of sample 4 was confirmed to be 0.025M by titrating the aqueous sample with sodium hydroxide. […] It was also discovered that at pHs greater than 5.8, such as at a pH of about 6.2, some of the pyruvic acid was present in the form of a dimerized sodium salt. […] As such, it was discovered that to minimize dimmer formation, it may be necessary to control the pH of [1-^13C]pyruvate solutions, and in particular, any aqueous solution should be maintained at a pH of about 6.5 or less, more preferably 6.0 or less, and even more preferably 5.8 or less.

The mark [5] stands for this setting: Sample 1: −10° C., dark, NMR spectra unchanged.
The mark [6] stands for this setting: Sample 3: room temperature (about 22° C. to about 26° C.), dark.
Where [7] appears, read: Sample 4: room temperature (about 22° C. to about 26° C.), light.

Here are results for two molecules from patent publication US20080171893A1, “Isotopically labeled alpha-keto acids and esters” (Spectra Gases, Inc., priority 2006, published 2008).

On to `CC(=O)C(=O)O` [Formula VIB, 2-oxopropanoic acid], for which the Solubility in water result in data set [1] is on record as “soluble in water”. The “Stability after 6-weeks” value in data set [2] (concentration 2.3 in water), in data set [2] (concentration 2.8 in water), in data set [2] (concentration 3.8 in water), in data set [2] (concentration 5.7 in water) and in data set [2] (concentration 11.3 in water) was “Stable” each time.
Regarding `CC(=O)[13C](=O)O` [[1-^13C]pyruvic acid], in data set [3] (setting [5]), the “Shelf stability, 12 weeks” value was “Stable” and the “Shelf stability, 17 weeks” value is “Stable”. Also, in data set [3] (Sample 2: 4° C., dark), the “Shelf stability, 12 weeks” value is recorded as “Stable” and the “Shelf stability, 17 weeks” value is recorded as “Stable”. Moreover, in data set [3] (setting [6]), the “Shelf stability, 12 weeks” value is given as “Stable” and the “Shelf stability, 17 weeks” value is reported as “Stable”. For the same molecule, in data set [3] (setting [7]), the “Shelf stability, 12 weeks” value is reported as “Stable” and the “Shelf stability, 17 weeks” value was “Stable”. Also, in data set [4], the “Content of dimerized [1-^13C]pyruvate salt by HPLC” value was 2-4%, the “Content of sodium [1-^13C]pyruvate by HPLC” value is 89% and the “Share of the pyruvic acid accounted for by the dimerized salt” value is 4-6%.
